Calls of active or inactive are those of the source. No cut-off for these calls is given here.
Legend:
Mus musculus [1] = experiment: Cognition-enhancing effect in ICR mouse assessed as reduction of scopolamine-induced escape latency and number of errors at 10 to 40 mg/kg, ig treated 1 hr before scopolamine challenge by passageway water maze test; assay type: functional, organism-based
Mus musculus [2] = experiment: Cognition-enhancing effect in ICR mouse assessed as reduction of scopolamine-induced escape latency and number of errors at 20 mg/kg, ig treated 1 hr before scopolamine challenge by passageway water maze test; assay type: functional, organism-based
Mus musculus [3] = experiment: Cognition-enhancing effect in ICR mouse assessed as reduction of scopolamine-induced escape latency and number of errors at 0.1 mg/kg, ig treated 1 hr before scopolamine challenge by passageway water maze test; assay type: functional, organism-based
Mus musculus [4] = experiment: Cognition-enhancing effect in ig dosed ICR mouse assessed as reduction of scopolamine-induced escape latency and number of errors treated 1 hr before scopolamine challenge by passageway water maze test; assay type: functional, organism-based
SH-SY5Y = experiment: Neuroprotective activity in human SH-SY5Y cells assessed as production against amyloid beta (25 to 35)-induced cell death by measuring cell viability at 1 uM after 24 hrs by MTT assay; assay type: functional

SMILES | Activity (Mus musculus [2]) | Activity (Mus musculus [3]) | also measured
CC(=O)O[C@@H]1[C@@H]2[C@@H](OC(C)=O)[C@]3(OC2(C)C)[C@H](C)CC[C@H](OC(C)=O)[C@@]3(C)[C@H]1OC(=O)c1ccccc1 |  |  | Activity (Mus musculus [1]): inactive
CC(=O)O[C@H]1C[C@@H]2[C@@H](OC(=O)c3ccccc3)[C@]3(OC2(C)C)[C@H](C)CC[C@H](OC(=O)c2ccccc2)[C@@]13C | Active | Active | 
C/C=C1\[C@H]2C=C(C)C[C@]1(N)c1ccc(=O)[nH]c1C2 |  | Active | 
CC(=O)O[C@H]1C[C@@H]2[C@@H](OC(C)=O)[C@]3(OC2(C)C)[C@H](C)CC[C@H](OC(=O)c2ccccc2)[C@@]13C | Active | Active | 
CC(=O)OC[C@@]12[C@@H](OC(C)=O)CC[C@@H](C)[C@]13OC(C)(C)[C@H](C[C@@H]2OC(=O)c1ccccc1)[C@H]3OC(C)=O | Active | Active | 
CC(=O)O[C@H]1CC[C@@H](C)[C@@]23C[C@@H](C[C@H](OC(=O)/C=C/c4ccccc4)[C@]12C)C(C)(C)O3 |  | Active | Activity (Mus musculus [4]): Dose-dependent effect
CC(=O)O[C@H]1[C@@H](OC(=O)/C=C/c2ccccc2)C[C@@H](C)[C@@]23C[C@@H](C[C@H](OC(=O)/C=C/c4ccccc4)[C@]12C)C(C)(C)O3 |  |  | Activity (SH-SY5Y): 76.3%
CC(=O)O[C@@H]1[C@H]2C[C@H](OC(=O)/C=C/c3ccccc3)[C@]3(C)[C@@H](OC(C)=O)[C@@H](OC(=O)c4ccccc4)C[C@@H](C)[C@@]13OC2(C)C |  |  | Activity (SH-SY5Y): 79.6%

Reference: ChEMBL document CHEMBL3608215, “Natural β-Dihydroagarofuran-Type Sesquiterpenoids as Cognition-Enhancing and Neuroprotective Agents from Medicinal Plants of the Genus Celastrus” (2015)
